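Results reflect a 48-hour exposure of cells in 96-well plates to compound at five concentrations. The concentration for 50% growth inhibition is given as GI50.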 Calls of active or inactive are those of the source. No stated cut-off is given here; in the data, active = GI50 up to about 1.1 µM and inactive = higher.
Columns and labels:
Assay in all cases: NCI anticancer screen, dose series, 48 h
OVCAR-3 = tested on: OVCAR-3
ACHN = tested on: ACHN
HOP-92 = tested on: HOP-92
SR = tested on: SR
NCI-H522 = tested on: NCI-H522
SK-MEL-28 = tested on: SK-MEL-28
SK-MEL-2 = tested on: SK-MEL-2
UACC-257 = tested on: UACC-257
DU-145 = tested on: DU-145
SNB-75 = tested on: SNB-75
NCI-H23 = tested on: NCI-H23
HOP-62 = tested on: HOP-62
BT-549 = tested on: BT-549
U-251 = tested on: U-251
SW-620 = tested on: SW-620
OVCAR-4 = tested on: OVCAR-4
EKVX = tested on: EKVX
SN12C = tested on: SN12C
MDA-MB-435 = tested on: MDA-MB-435

Measured: GI50

C#CCn1ncc2c(SC)ncnc21
inactive: OVCAR-3 > 100 µM | ACHN > 100 µM | HOP-92 > 100 µM | SR > 100 µM | NCI-H522 > 100 µM | SK-MEL-28 > 100 µM | SK-MEL-2 > 100 µM | UACC-257 > 100 µM | DU-145 > 100 µM | SNB-75 33.8 µM | NCI-H23 > 100 µM | HOP-62 > 100 µM | BT-549 > 100 µM | U-251 > 100 µM | SW-620 > 100 µM | OVCAR-4 > 100 µM | EKVX 66.4 µM | SN12C > 100 µM | MDA-MB-435 > 100 µM

COC(=O)c1ccc(C(=O)NC(Cc2ccc(Oc3cc(CC(NC(=O)c4ccccc4C(=O)OC)C(=O)OC)ccc3OC)cc2)C(=O)OC)cc1 (stereo unspecified)
inactive: OVCAR-3 > 100 µM | ACHN > 100 µM | HOP-92 > 100 µM | SR > 100 µM | SK-MEL-28 > 100 µM | SK-MEL-2 77.8 µM | UACC-257 > 100 µM | DU-145 > 100 µM | SNB-75 42.6 µM | NCI-H23 > 100 µM | HOP-62 36.3 µM | BT-549 74.8 µM | SW-620 > 100 µM | OVCAR-4 > 100 µM | EKVX > 100 µM | SN12C > 100 µM | MDA-MB-435 > 100 µM

CS(=O)(=O)NC12CCC(c3ccccc31)c1ccccc12
inactive: OVCAR-3 > 100 µM | ACHN > 100 µM | HOP-92 > 100 µM | SR > 100 µM | NCI-H522 > 100 µM | SK-MEL-28 > 100 µM | SK-MEL-2 > 100 µM | DU-145 > 100 µM | SNB-75 > 100 µM | NCI-H23 > 100 µM | HOP-62 > 100 µM | BT-549 > 100 µM | U-251 > 100 µM | SW-620 > 100 µM | OVCAR-4 > 100 µM | EKVX > 100 µM | SN12C > 100 µM | MDA-MB-435 > 100 µM

CC1(C)CC(=O)c2c(-c3ccc(Cl)cc3)c(C#N)c(=S)n(C3OC(CO)C(O)C(O)C3O)c2C1 (stereo unspecified)
inactive: OVCAR-3 30.9 µM | ACHN 39 µM | HOP-92 21.2 µM | SR 22 µM | NCI-H522 35 µM | SK-MEL-28 34.8 µM | SK-MEL-2 19 µM | UACC-257 28.4 µM | DU-145 49.8 µM | SNB-75 25.3 µM | NCI-H23 50.8 µM | HOP-62 69.5 µM | BT-549 45.9 µM | U-251 21.7 µM | SW-620 36.6 µM | OVCAR-4 49.2 µM | SN12C 31.7 µM | MDA-MB-435 27.9 µM

Cc1ccc(S(=O)(=O)OC2C3OC(C)(C)OC3OC2C(c2cc(O)c3c(c2O)C(=O)c2ccccc2C3=O)c2cc(O)c3c(c2O)C(=O)c2ccccc2C3=O)cc1 (stereo unspecified)
inactive: OVCAR-3 > 10 µM | ACHN > 10 µM | HOP-92 > 10 µM | SR > 10 µM | NCI-H522 > 10 µM | SK-MEL-28 > 10 µM | SK-MEL-2 > 10 µM | UACC-257 > 10 µM | DU-145 > 10 µM | SNB-75 > 10 µM | NCI-H23 > 10 µM | HOP-62 > 10 µM | BT-549 > 10 µM | U-251 > 10 µM | SW-620 > 10 µM | OVCAR-4 > 10 µM | EKVX > 10 µM | SN12C > 10 µM | MDA-MB-435 > 10 µM

N#CC(NNC(=O)Cc1ccccc1)c1c(O)ccc2ccccc12 (stereo unspecified)
inactive: OVCAR-3 2.99 µM | ACHN 3.4 µM | HOP-92 5 µM | SR 3.44 µM | NCI-H522 3.47 µM | SK-MEL-28 7.66 µM | SK-MEL-2 2.92 µM | UACC-257 3.59 µM | DU-145 10.2 µM | SNB-75 8.47 µM | NCI-H23 4.89 µM | HOP-62 10.2 µM | BT-549 1.73 µM | U-251 3.72 µM | SW-620 6.98 µM | OVCAR-4 5.5 µM | EKVX 5.56 µM | SN12C 7.93 µM | MDA-MB-435 10.4 µM

O=c1[nH]n(CCc2ccccc2CCl)c2ccc([N+](=O)[O-])cc12
inactive: OVCAR-3 > 100 µM | ACHN > 100 µM | HOP-92 67.6 µM | SR 50.9 µM | NCI-H522 52.6 µM | SK-MEL-28 > 100 µM | SK-MEL-2 > 100 µM | UACC-257 70.6 µM | DU-145 77.3 µM | NCI-H23 89.9 µM | HOP-62 > 100 µM | BT-549 33.3 µM | U-251 81.8 µM | SW-620 > 100 µM | OVCAR-4 37.2 µM | EKVX 3.65 µM | SN12C > 100 µM | MDA-MB-435 63.5 µM

Cc1nn(-c2ccccc2)c2c1C(c1cc3ccccc3nc1Cl)NC(=O)N2 (stereo unspecified)
inactive: OVCAR-3 32.7 µM | ACHN 17.7 µM | HOP-92 10.8 µM | SR 2.19 µM | NCI-H522 16.5 µM | SK-MEL-2 14.3 µM | UACC-257 27.7 µM | DU-145 29.4 µM | SNB-75 18.9 µM | NCI-H23 17.9 µM | HOP-62 20.4 µM | BT-549 16.6 µM | U-251 17.1 µM | SW-620 17.7 µM | OVCAR-4 34.1 µM | EKVX 25.9 µM | SN12C 24.4 µM | MDA-MB-435 23.9 µM

Cc1ccc(-c2c(C#N)c(N)[nH]c(=S)c2C#N)cc1
inactive: OVCAR-3 35.2 µM | ACHN 79.3 µM | HOP-92 31.4 µM | SR 22.2 µM | NCI-H522 19.4 µM | SK-MEL-28 26.2 µM | SK-MEL-2 25.2 µM | UACC-257 34.5 µM | DU-145 50.8 µM | NCI-H23 39.7 µM | HOP-62 55 µM | BT-549 34.1 µM | U-251 49.1 µM | SW-620 13.6 µM | OVCAR-4 54.7 µM | EKVX 13.4 µM | SN12C 22.3 µM | MDA-MB-435 23.3 µM

CC1=NN(C(=O)CC(=O)Nc2ccccc2Cl)C(=O)C1/N=N/c1ccc(C(=O)O)cc1 (stereo unspecified)
inactive: OVCAR-3 > 100 µM | ACHN > 100 µM | HOP-92 19.6 µM | SR 51.1 µM | NCI-H522 > 100 µM | SK-MEL-28 > 100 µM | SK-MEL-2 > 100 µM | UACC-257 > 100 µM | DU-145 > 100 µM | NCI-H23 > 100 µM | HOP-62 > 100 µM | BT-549 > 100 µM | U-251 > 100 µM | SW-620 > 100 µM | OVCAR-4 > 100 µM | EKVX 4.46 µM | SN12C > 100 µM | MDA-MB-435 > 100 µM

COc1ccc(/C=C/C(=O)/C=C/c2ccc(OC)cc2OC)c(OC)c1
inactive: OVCAR-3 2.76 µM | ACHN 6.61 µM | HOP-92 18.6 µM | SR 3.64 µM | NCI-H522 2.41 µM | SK-MEL-28 4.83 µM | SK-MEL-2 1.33 µM | UACC-257 1.39 µM | DU-145 12.4 µM | SNB-75 14.9 µM | NCI-H23 10.2 µM | HOP-62 44.5 µM | BT-549 4.34 µM | U-251 4.67 µM | SW-620 5.32 µM | OVCAR-4 12.3 µM | EKVX 9.08 µM | SN12C 18.6 µM | MDA-MB-435 2.41 µM

— ChEMBL document CHEMBL1201862, “PubChem BioAssay data set” (2004)
